Source: ChEMBL document CHEMBL1128368, “Synthesis and serotonergic activity of N,N-dimethyl-2-[5-(1,2,4-triazol-1-ylmethyl)-1H-indol-3-yl]ethylamine and analogues: potent agonists for 5-HT1D receptors” (J Med Chem, 1995)

How the values were obtained:
[1] = target: T1, Serotonin 3 (5-HT3) receptor (Rattus norvegicus, UniProt P35563+Q9JJ16); assay: Inhibition of [3H]-Q-ICS 205-930 binding to rat cortex homogenate 5-hydroxytryptamine 3 receptor
T1 sequence (P35563 whole entry): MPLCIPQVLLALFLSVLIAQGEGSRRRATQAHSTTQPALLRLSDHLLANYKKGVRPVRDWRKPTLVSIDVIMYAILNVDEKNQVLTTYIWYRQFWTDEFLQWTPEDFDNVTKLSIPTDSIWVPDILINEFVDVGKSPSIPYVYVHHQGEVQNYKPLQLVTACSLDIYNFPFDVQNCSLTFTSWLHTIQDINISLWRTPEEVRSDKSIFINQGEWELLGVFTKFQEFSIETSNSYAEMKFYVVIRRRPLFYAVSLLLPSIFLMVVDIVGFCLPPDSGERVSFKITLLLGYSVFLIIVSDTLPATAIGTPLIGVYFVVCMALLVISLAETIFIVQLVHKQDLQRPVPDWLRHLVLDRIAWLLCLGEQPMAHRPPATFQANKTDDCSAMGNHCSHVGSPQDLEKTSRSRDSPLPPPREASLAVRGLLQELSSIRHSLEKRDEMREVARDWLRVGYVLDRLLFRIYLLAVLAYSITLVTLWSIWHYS
T1 sequence (Q9JJ16 whole entry): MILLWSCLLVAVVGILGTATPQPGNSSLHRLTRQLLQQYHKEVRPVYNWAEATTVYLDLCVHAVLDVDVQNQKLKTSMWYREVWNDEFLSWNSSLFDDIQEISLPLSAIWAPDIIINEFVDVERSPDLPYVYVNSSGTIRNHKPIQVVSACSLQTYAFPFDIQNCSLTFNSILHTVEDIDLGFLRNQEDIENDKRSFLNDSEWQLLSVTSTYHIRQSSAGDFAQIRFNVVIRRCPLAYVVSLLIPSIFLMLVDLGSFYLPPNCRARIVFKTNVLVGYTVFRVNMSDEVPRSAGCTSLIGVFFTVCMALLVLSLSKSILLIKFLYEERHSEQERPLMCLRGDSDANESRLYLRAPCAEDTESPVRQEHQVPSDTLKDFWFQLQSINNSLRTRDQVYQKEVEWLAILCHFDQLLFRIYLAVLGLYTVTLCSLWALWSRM

[2] = species: Oryctolagus cuniculus; assay: Functional activity was determined by the contraction of New Zealand white rabbit saphenous vein.
[3] = target: T2, 5-HT2C receptors (Sus scrofa, UniProt K7GSR7); assay: Binding activity against 5-hydroxytryptamine 2C receptor from pig cortex membrane using [3H]mesulergine as radioligand.
[4] = Partition coefficient (logD7.4); conditions: octanol/water, pH 7.4
[5] = target: 5-hydroxytryptamine receptor 1D (Sus scrofa, UniProt P79400); assay: Binding activity against 5-hydroxytryptamine 1D receptor from pig caudate membrane using [3H]5-HT as radioligand
[6] = Binding activity against 5-hydroxytryptamine 2C receptor from pig cortex membrane using [3H]mesulergine as radioligand.
[7] = target: T2, 5-HT2C receptors; assay: Binding activity against 5-hydroxytryptamine 2C receptor from pig cortex membrane using [3H]mesulergine as radioligand; NA Not Available
[8] = target: Serotonin 3 (5-HT3) receptor; assay: Binding activity against 5-hydroxytryptamine 1A receptor from human brain cortex using [3H]8-OH-DPAT[…] radioligand.
[9] = target: T1, Serotonin 3 (5-HT3) receptor; assay: Binding activity radioligand.; format: protein-complex assay

5-hydroxytryptamine receptor 1D, sequence (P79400 whole entry): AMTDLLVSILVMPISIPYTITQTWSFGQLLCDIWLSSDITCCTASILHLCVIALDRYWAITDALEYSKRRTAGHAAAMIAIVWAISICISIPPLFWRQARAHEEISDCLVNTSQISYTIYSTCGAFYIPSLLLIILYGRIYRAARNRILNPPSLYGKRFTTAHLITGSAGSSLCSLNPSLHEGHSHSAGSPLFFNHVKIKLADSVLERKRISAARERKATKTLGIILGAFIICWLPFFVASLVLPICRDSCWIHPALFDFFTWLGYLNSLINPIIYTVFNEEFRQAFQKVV

With `CN(C)CCc1c[nH]c2ccc(Cc3nnn(C)n3)cc12` as the molecule, how does the IC50 [1] read?
The IC50 was 2510 nM.

What about the EC50 [2] of the same molecule?
Its EC50 is 1000 nM.

And the IC50 [3]?
The IC50 was 2510 nM.

Which results are given for `CN(C)CCc1c[nH]c2ccc(Cn3nccn3)cc12`?
logD [4]: -0.2; IC50 [5]: 251 nM

Which results are given for `CCn1nnc(Cc2ccc3[nH]cc(CCN(C)C)c3c2)n1`?
IC50 [1]: 2510 nM; EC50 [2]: 631 nM; IC50 [3]: 1580 nM

With `CN(C)CCc1c[nH]c2ccc(Cc3nnn[nH]3)cc12` as the molecule, how does the IC50 [3] read?
The IC50 was over 10000 nM.

For `CN(C)CCc1c[nH]c2ccc(Cc3nc(N)no3)cc12`, which IC50 [3] is on record?
Its IC50 is 398 nM.

And the pIC50 [6]?
The pIC50 was 5.9.

For `CCn1nnnc1Cc1ccc2[nH]cc(CCN(C)C)c2c1`, which IC50 [1] is on record?
The IC50 was over 10000 nM.

What about the EC50 [2] of the same molecule?
The EC50 was 398 nM.

And the IC50 [3]?
The IC50 was over 10000 nM.

With `CN(C)CCc1c[nH]c2ccc(Cn3ccnn3)cc12` as the molecule, how does the EC50 [2] read?
Its EC50 is 1000 nM.

What about the IC50 [7] of the same molecule?
The IC50 was 6310 nM.

What does the source list for `CN(C)CCc1c[nH]c2ccc(Cc3ncn(C)n3)cc12`?
logD [4]: -1.01; IC50 [5]: 200 nM

With `CN(C)CCc1c[nH]c2ccc(Cc3ncnn3C)cc12` as the molecule, how does the logD [4] read?
The logD was -0.75.

And the IC50 [1]?
The IC50 was 10000 nM.

What about the EC50 [2] of the same molecule?
The EC50 was 631 nM.

What about the IC50 [3] of the same molecule?
Its IC50 is 3980 nM.

With `CN(C)CCc1c[nH]c2ccc(Cn3ccnc3)cc12` as the molecule, how does the logD [4] read?
The logD was -0.53.

What about the IC50 [1] of the same molecule?
The IC50 was 1260 nM.

What about the EC50 [2] of the same molecule?
The EC50 was 501 nM.

What about the IC50 [3] of the same molecule?
Its IC50 is 3160 nM.

For `CN(C)CCc1c[nH]c2ccc(Cc3nnnn3C)cc12`, which IC50 [1] is on record?
Its IC50 is 5010 nM.

And the EC50 [2]?
The EC50 was 251 nM.

What about the IC50 [3] of the same molecule?
Its IC50 is over 10000 nM.

For `Cc1nccn1Cc1ccc2[nH]cc(CCN(C)C)c2c1`, which IC50 [1] is on record?
Its IC50 is 1580 nM.

What about the EC50 [2] of the same molecule?
The EC50 was 631 nM.

What about the IC50 [3] of the same molecule?
The IC50 was 7940 nM.

With `CN(C)CCc1c[nH]c2ccc(Cn3ncnn3)cc12` as the molecule, how does the logD [4] read?
The logD was -0.34.

And the IC50 [1]?
The IC50 was 3160 nM.

And the EC50 [2]?
The EC50 was 200 nM.

What about the IC50 [3] of the same molecule?
The IC50 was 2000 nM.

Which IC50 [1] does the source give for `CN(C)CCc1c[nH]c2ccc(Cn3cnnn3)cc12` here?
The IC50 was 1260 nM.

And the EC50 [2]?
The EC50 was 200 nM.

And the IC50 [3]?
Its IC50 is 5010 nM.

What does the source list for `Cc1nccn1-c1ccc2[nH]cc(CCN(C)C)c2c1`?
logD [4]: -0.13; IC50 [1]: 3160 nM; EC50 [2]: 158 nM; IC50 [3]: > 10000 nM

For `CN(C)CCc1c[nH]c2ccc(Cc3nncn3C)cc12`, which IC50 [3] is on record?
The IC50 was over 10000 nM.

With `CN(C)CCc1c[nH]c2ccc(-n3cncn3)cc12` as the molecule, how does the IC50 [1] read?
Its IC50 is 10000 nM.

What about the EC50 [2] of the same molecule?
The EC50 was 63.1 nM.

What about the IC50 [3] of the same molecule?
Its IC50 is 10000 nM.

For `CN(C)CCc1c[nH]c2ccc(Cn3cncn3)cc12` [RIZATRIPTAN], which logD [4] is on record?
The logD was -0.74.

And the pIC50 [8]?
Its pIC50 is under 5.

What about the EC50 [2] of the same molecule?
Its EC50 is 251 nM.

And the IC50 [9]?
The IC50 was 3980 nM.

What about the IC50 [3] of the same molecule?
Its IC50 is 6310 nM.
